Literature values, collected in US20140171372A1, “Treatments for Alzheimer's disease” (priority 2012, published 2014).

Key:
[1] = radiolabeled, injected systemically into animals
[2] = treatment of spinal injury, Parkinson disease and AD
AD patients = conditions: intracerebroventricular injection, limited number of AD patients

Compound	neuroprotective effect in animal models (animal models)	neuroprotective effect in cultured cells (cultured cells)	protective effects relative to GM1 (cultured cells; cultured cells and animal models, compared with GM1)	distribution after systemic injection [1]	tolerability in Human [2]	clinical improvement in AD patients (AD patients)	outcome of clinical trial in AD (patients)
CCCCCCCCCCCCC/C=C/C(O)C(COC1OC(CO)C(OC2OC(CO)C(OC3OC(CO)C(O)C(OC4OC(CO)C(O)C(O)C4O)C3NC(C)=O)C(OC3(C(=O)O)CC(O)C(NC(C)=O)C(C(O)C(O)CO)O3)C2O)C(O)C1O)NC(=O)C(Cl)Cl (stereo not drawn) [LIGA20]	neuroprotective	neuroprotective	more potent protective effects than GM1	–	–	–	–
GM1	neuroprotective	neuroprotective	–	reach neuronal synapses and neuromuscular junctions	well tolerated	some degree of improvement	–
Solanezumab	–	–	–	–	–	–	failed
